# Reference: PubChem BioAssay (NCI)
# Values joined by “and” are separate entries in the source; they are usually repeats but may differ in a detail not shown here. Equal values may be shown once.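 Compound exposure: 48 hours, 5 concentrations, 96-well plates. GI50 marks 50% less growth. TGI: total growth inhibition.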
# How the values were obtained:
# Assay in all cases: NCI anticancer screen, dose series, 48 h
# [1] = tested on: HCT-15 colon
# [2] = tested on: HOP-92 NSCLC
# [3] = tested on: OVCAR-3 ovarian
# [4] = tested on: RPMI-8226 leukemia
# [5] = tested on: RXF 393 renal
# [6] = tested on: SF-268 CNS
# [7] = tested on: UO-31 renal
# [8] = tested on: TK-10 renal
# [9] = tested on: DU-145 prostate
# [10] = tested on: HS 578T breast
Compound,TGI [1],TGI [2],TGI [3],TGI [4],TGI [5],TGI [6],TGI [7],TGI [8],GI50 [9],TGI [9],GI50 [1],GI50 [10],TGI [10],GI50 [3],GI50 [4],GI50 [5],GI50 [6],GI50 [8],GI50 [7],GI50 [2]
N#CCc1cccc(CC#N)c1Br,> 100 µM,> 100 µM,> 100 µM,> 100 µM,93.7 µM,> 100 µM,> 100 µM,,,,,,,,,,,,,
O=C(O)CSc1n[nH]c(-c2ccco2)n1,,> 100 µM,> 100 µM,> 100 µM,> 100 µM,,> 100 µM,> 100 µM,,,,,,,,,,,,
O=C1CCC(=O)N1Sc1ccccc1,> 100 µM,> 100 µM,> 100 µM,> 100 µM,> 100 µM,> 100 µM,> 100 µM,> 100 µM,,,,,,,,,,,,
COc1ccc(-c2cc(/C=C/C(=O)c3ccc(N)cc3)[nH]n2)cc1,3.62 µM,,2.97 µM,3.22 µM,4.19 µM,5.31 µM,2.56 µM,13 µM,1.32 µM,3.46 µM,1 µM,4.04 µM,24.4 µM,1.25 µM,0.6 µM,1.67 µM,1.82 µM,2.81 µM,1.18 µM,
O=NNc1ccc(S(=O)(=O)c2ccc3ccccc3c2)cn1,> 100 µM,,> 100 µM,,,> 100 µM,58.4 µM,> 100 µM,,> 100 µM,,,> 100 µM,,,,,,,
CCOC(=O)c1c(NC(=O)c2ccc(Cl)cc2)sc2c(CN(C)C)c(O)ccc12,5.76 µM,6.07 µM,> 100 µM,,13.4 µM,48.8 µM,25.7 µM,34.5 µM,13.2 µM,47.9 µM,2.16 µM,4.06 µM,26.5 µM,16.2 µM,,2.98 µM,7.63 µM,14.5 µM,4.88 µM,1.78 µM
C=C1CC[C@H]2C(C)=CC[C@H]3C(=C)C(=O)O[C@@H]3[C@@H]12,> 100 µM,> 100 µM,,,,,> 100 µM,> 100 µM,,> 100 µM,,,,,,,,,,
O=C(O)CCCCC1CCSS1 (stereo unspecified),> 100 µM,> 100 µM,> 100 µM,> 100 µM,,> 100 µM,> 100 µM,> 100 µM,,> 100 µM,,,> 100 µM,,,,,,,
O=[N+]([O-])/C=C/c1ccc(Cl)cc1[N+](=O)[O-],5.72 µM,27.5 µM,,,4.02 µM,> 100 µM,3.82 µM,3.48 µM,2.52 µM,5.49 µM,2.2 µM,8.16 µM,> 100 µM,,,2.36 µM,3.34 µM,1.78 µM,1.55 µM,13.2 µM
COc1cc(-c2nn(-c3cccc(NC(=O)CCN4CCN(c5ccccc5)CC4)c3)cc2-c2ccncc2)ccc1Cl,> 100 µM,19.5 µM,9.73 µM,,5.18 µM,> 100 µM,48 µM,> 100 µM,4.35 µM,> 100 µM,2.62 µM,4.61 µM,> 100 µM,2.68 µM,,1.91 µM,3.56 µM,3.69 µM,2.9 µM,2.92 µM
O=CN1N=C(c2cccc(Nc3ccnc4cc(Cl)ccc34)c2)CC1c1ccc(Cl)cc1 (stereo unspecified),> 100 µM,,7.71 µM,> 100 µM,> 100 µM,> 100 µM,> 100 µM,,4.17 µM,> 100 µM,0.903 µM,1.97 µM,> 100 µM,1.2 µM,2.45 µM,3.08 µM,4.37 µM,,0.878 µM,
CN(C)CCN1CCc2c([nH]c3ccccc23)C1c1cccnc1 (stereo unspecified),> 100 µM,> 100 µM,> 100 µM,> 100 µM,> 100 µM,> 100 µM,> 100 µM,> 100 µM,,,,,,,,,,,,
O=C1OC(=O)C([Se]c2ccccc2)=C1[Se]c1ccccc1,> 100 µM,> 100 µM,> 100 µM,> 100 µM,> 100 µM,> 100 µM,,> 100 µM,,,,,,,,,,,,
N#Cc1cc(S(=O)(=O)Nc2nc3cc(Cl)ccc3o2)c(SCc2ccccc2)cc1Cl,29.7 µM,23.5 µM,26.4 µM,43 µM,25 µM,32.2 µM,24.7 µM,28 µM,,,16.2 µM,,,13.5 µM,16.3 µM,12.5 µM,14.7 µM,14.8 µM,12.3 µM,10.5 µM
OCC(O)C(O)C(O)c1nn(-c2ccc(F)cc2)c2nc3cc(Cl)c(Cl)cc3nc12 (stereo unspecified),> 100 µM,,49.5 µM,> 100 µM,36.9 µM,43.3 µM,> 100 µM,59.1 µM,,,,,,,,,,,,
CC1(C)OC(=O)C(=C2CCC(C(=O)Nc3cccc(C(F)(F)F)c3)N2)C(=O)O1 (stereo unspecified),> 100 µM,> 100 µM,> 100 µM,> 100 µM,> 100 µM,> 100 µM,> 100 µM,> 100 µM,,,,,,,,,,,,
COc1cccc(/C=N\NC(=O)C(C)SC(C)C(=O)N/N=C/c2cccc(OC)c2)c1 (stereo unspecified),> 100 µM,38.8 µM,39.3 µM,> 82.3 µM,28.6 µM,97.5 µM,> 85.5 µM,36.6 µM,,,,,,,,,,,,
COc1ccc(Br)c(C(=O)N2CCc3ccccc32)c1N,> 100 µM,> 100 µM,66.2 µM,> 100 µM,> 100 µM,,> 100 µM,> 100 µM,,,,,,,,,,,,
N#[N+]c1ccc(Nc2ccccc2)cc1,> 50 µg/mL,,> 50 µg/mL,> 50 µg/mL,> 50 µg/mL,> 50 µg/mL,> 50 µg/mL,> 50 µg/mL,> 50 µg/mL,> 50 µg/mL,> 50 µg/mL,> 50 µg/mL,> 50 µg/mL,> 50 µg/mL,> 50 µg/mL,> 50 µg/mL,> 50 µg/mL,> 50 µg/mL,> 50 µg/mL,
Cc1cc(Cl)ccc1NC(=O)C1C(=O)N(c2ccc(Cl)cc2C)C(=O)/C1=N\NC(N)=S (stereo unspecified),34.4 µM,46.6 µM,> 100 µM,> 100 µM,54.1 µM,> 100 µM,41.1 µM,> 100 µM,,,,,,,,,,,,

Compound,TGI [1],TGI [2],TGI [3],TGI [4],TGI [5],TGI [6],TGI [7],TGI [8],GI50 [9],TGI [9],GI50 [1],GI50 [10],TGI [10],GI50 [3],GI50 [4],GI50 [5],GI50 [6],GI50 [8],GI50 [7],GI50 [2]
Cc1ccc2ccc(-c3ccccc3)c3c2c1C(=O)c1ccccc1C3=O,,74.4 µM,> 100 µM,> 100 µM,> 100 µM,> 100 µM,> 100 µM,> 100 µM,,,,,,,,,,,,
Cc1cc(S(N)(=O)=O)c(S/C(=N\NS(=O)(=O)c2ccccc2)c2ccc(Cl)cc2)cc1Cl,> 100 µM,84.9 µM,> 100 µM,,,> 100 µM,> 100 µM,> 100 µM,> 100 µM,> 100 µM,> 100 µM,39.8 µM,> 100 µM,47.6 µM,,,> 100 µM,> 100 µM,> 100 µM,30.3 µM
Nc1ncc2ncn(C3CCC(CO)O3)c2n1 (stereo unspecified),> 100 µM,,> 100 µM,> 100 µM,,> 100 µM,> 100 µM,> 100 µM,,> 100 µM,,,> 100 µM,,,,,,,
COc1cc(OC)c2c(=O)c3cccc([N+](=O)[O-])c3n(C)c2c1,> 100 µM,,,> 100 µM,> 100 µM,> 100 µM,> 100 µM,> 100 µM,,,,,,,,,,,,
COc1cc(-c2nn(-c3cccc(NC(=O)CCNc4ccc(N5CCOCC5)cc4)c3)cc2-c2ccncc2)ccc1Cl,> 100 µM,8.01 µM,8.55 µM,,8.08 µM,> 100 µM,> 100 µM,47.9 µM,4.04 µM,> 100 µM,2.35 µM,3.27 µM,> 100 µM,2.45 µM,,2.05 µM,4.42 µM,3.13 µM,2.7 µM,2.37 µM
CC(C)OP(=O)(O)c1ncc(-c2ccc(C(F)(F)F)cc2)c(NC2CCCCCC2)n1,> 100 µM,,> 100 µM,> 100 µM,> 100 µM,> 100 µM,> 100 µM,> 100 µM,> 100 µM,> 100 µM,> 100 µM,> 100 µM,> 100 µM,87 µM,20.9 µM,> 100 µM,> 100 µM,> 100 µM,> 100 µM,
Cc1ccc(C2CC(c3ccc(Nc4ccnc5cc(Cl)ccc45)cc3)=NN2C=O)cc1 (stereo unspecified),> 100 µM,> 100 µM,> 100 µM,> 100 µM,> 100 µM,> 100 µM,> 100 µM,> 100 µM,> 100 µM,> 100 µM,2.78 µM,,,6.82 µM,2.18 µM,4.89 µM,8.61 µM,> 100 µM,5.49 µM,2.14 µM
O=C1C(=O)C2(CC1S(=O)(=O)c1ccccc1)c1ccccc1-c1ccccc12 (stereo unspecified),34.6 µM,,> 10 µM,58.9 µM,35.6 µM,76.7 µM,47 µM,68.9 µM,,,,,,,,,,,,
C1=CC2CCC1CN2CCC1CNc2ccccc21 (stereo unspecified),,> 100 µM,> 100 µM,> 100 µM,> 100 µM,> 100 µM,> 100 µM,> 100 µM,,,,,,,,,,,,
COc1cc2c(c(OC)c1OC)C(=O)NCCC2,> 100 µM,> 100 µM,> 100 µM,> 100 µM,> 100 µM,> 100 µM,> 100 µM,> 100 µM,,,,,,,,,,,,
COc1cc(N(C)C)c(OC)cc1C=C1C=CC=C1,,> 100 µM,> 100 µM,,> 100 µM,> 100 µM,> 100 µM,> 100 µM,,> 100 µM,,,> 100 µM,,,,,,,
Nc1ccccc1C#Cc1ccccc1C#Cc1cccs1,33.5 µM,22.2 µM,26.4 µM,40.6 µM,> 100 µM,42.8 µM,47.3 µM,,20.6 µM,48 µM,13.1 µM,,,13.1 µM,14.1 µM,18.2 µM,20.4 µM,,19.1 µM,5.87 µM
C[C@H]1CC[P+](C)(c2ccccc2)C1 (stereo partly specified),> 100 µM,,> 100 µM,> 100 µM,> 100 µM,,> 100 µM,> 100 µM,,,,,,,,,,,,
CCCCCCCCCCCCCCCC[n+]1ccccc1,2.64 µM and 3.61 µM,0.753 µM and 1.4 µM,1.5 µM,,0.688 µM,1.71 µM and 2.57 µM,2.33 µM and 2.85 µM,0.518 µM and 1.66 µM,0.717 µM and 0.938 µM,1.99 µM and 2.31 µM,1.1 µM and 1.09 µM,1.46 µM and 1.67 µM,4.64 µM and 4.84 µM,0.366 µM,,0.224 µM,0.452 µM and 0.861 µM,0.207 µM and 0.432 µM,0.795 µM and 1.16 µM,0.21 µM and 0.335 µM
COc1ccc(C)cc1NC(=S)C#N,> 100 µM,> 100 µM,> 100 µM,> 100 µM,> 100 µM,> 100 µM,,> 100 µM,,> 100 µM,,,,,,,,,,
Cc1cc(NN=C(c2ccc(O)cc2)c2ccc(O)cc2)c([N+](=O)[O-])cc1[N+](=O)[O-],53.6 µM,,19.4 µM,4.16 µM,6.56 µM,57.3 µM,23.7 µM,37.5 µM,9.83 µM,29.5 µM,4.19 µM,5.04 µM,39.8 µM,4.14 µM,1.32 µM,1.79 µM,5.34 µM,4.53 µM,4.02 µM,
COc1ccc(/C=N/NS(=O)(=O)c2ccccc2)cc1,> 100 µM,> 100 µM,> 100 µM,> 100 µM,> 100 µM,> 100 µM,> 100 µM,> 100 µM,,,,,,,,,,,,
COc1cc(/C=C2\SC(N3CCCCC3)=NC2=O)ccc1OCCCCCCOc1ccc(/C=C2\SC(N3CCCCC3)=NC2=O)cc1OC,53.1 µM,8.95 µM,18.7 µM,,16.9 µM,17.6 µM,39.3 µM,27.9 µM,5.26 µM,17.6 µM,15.2 µM,3.74 µM,25.7 µM,6.04 µM,,4.94 µM,4.2 µM,11.5 µM,13.2 µM,2.47 µM
CCCCC1(C(NC(=O)c2ccccc2Cl)c2ccncc2)C(=O)N(c2ccccc2)N(c2ccccc2)C1=O (stereo unspecified),> 100 µM,> 100 µM,> 100 µM,84.1 µM,> 100 µM,> 100 µM,> 100 µM,> 100 µM,,,,,,,,,,,,
